# Target: T1, SIRT1 (Homo sapiens, UniProt Q96EB6)
# T1 sequence (Q96EB6 1-747): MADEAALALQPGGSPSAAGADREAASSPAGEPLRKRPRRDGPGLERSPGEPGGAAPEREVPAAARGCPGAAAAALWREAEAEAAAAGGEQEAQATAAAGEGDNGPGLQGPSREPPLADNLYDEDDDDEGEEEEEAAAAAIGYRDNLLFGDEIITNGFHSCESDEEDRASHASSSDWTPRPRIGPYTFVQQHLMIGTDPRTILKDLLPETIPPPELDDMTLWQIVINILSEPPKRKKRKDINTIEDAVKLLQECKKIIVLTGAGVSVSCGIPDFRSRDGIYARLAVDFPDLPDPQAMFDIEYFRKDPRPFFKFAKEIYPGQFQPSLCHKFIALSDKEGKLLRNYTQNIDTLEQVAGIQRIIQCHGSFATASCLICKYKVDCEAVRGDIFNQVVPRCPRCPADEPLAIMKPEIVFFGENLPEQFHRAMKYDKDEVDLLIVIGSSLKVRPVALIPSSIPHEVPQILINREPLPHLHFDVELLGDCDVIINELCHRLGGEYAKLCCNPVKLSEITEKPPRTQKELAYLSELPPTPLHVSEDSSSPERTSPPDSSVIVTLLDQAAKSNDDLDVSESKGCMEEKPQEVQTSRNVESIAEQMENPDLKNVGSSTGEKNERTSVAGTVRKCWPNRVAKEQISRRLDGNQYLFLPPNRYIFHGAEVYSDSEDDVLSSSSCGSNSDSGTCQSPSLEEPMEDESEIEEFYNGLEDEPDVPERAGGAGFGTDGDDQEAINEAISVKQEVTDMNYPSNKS
# Assay: Mass spectrometry based assay to identify modulators of SIRT1 activity (deacetylation of p53-based acetylated peptide)
# Assay type: biochemical
# Details: 10 nM SIRT1, 0.5 μM peptide substrate, 120 μM βNAD+, 25 minutes at 25° C.; for EC1.5 μM: SIRT1 activation
# From the text: A mass spectrometry based assay was used to identify modulators of SIRT1 activity. The mass spectrometry based assay utilizes a peptide having 20 amino acid residues as follows: Ac-EE-K(biotin)-GQSTSSHSK(Ac)NleSTEG-K(5TMR)-EE-NH2 (SEQ ID NO: 1) wherein K(Ac) is an acetylated lysine residue and Nle is a norleucine. The peptide is labeled with the fluorophore 5TMR (excitation 540 nm/emission 580 nm) at the C-terminus. The sequence of the peptide substrate is based on p53 with several modifications. In addition, the methionine residue naturally present in the sequence was replaced with the norleucine because the methionine may be susceptible to oxidation during synthesis and purification.
# The mass spectrometry assay is conducted as follows: 0.5 μM peptide substrate and 120 μM βNAD^+ is incubated with 10 nM SIRT1 for 25 minutes at 25° C. in a reaction buffer (50 mM Tris-acetate pH 8, 137 mM NaCl, 2.7 mM KCl, 1 mM MgCl2, 5 mM DTT, 0.05% BSA). Test compounds may be added to the reaction as described above. […] After the 25 minute incubation with SIRT1, 10 μL of 10% formic acid is added to stop the reaction. Reactions are sealed and frozen for later mass spec analysis. Determination of the mass of the substrate peptide allows for precise determination of the degree of acetylation (i.e. starting material) as compared to deacetylated peptide (product).
# A control for inhibition of sirtuin activity is conducted by adding 1 μL of 500 mM nicotinamide as a negative control at the start of the reaction (e.g., permits determination of maximum sirtuin inhibition). A control for activation of sirtuin activity is conducted using 10 nM of sirtuin protein, with 1 μL of DMSO in place of compound, to determine the amount of deacetylation of the substrate at a given timepoint within the linear range of the assay. This timepoint is the same as that used for test compounds and, within the linear range, the endpoint represents a change in velocity.
# For the above assay, SIRT1 protein was expressed and purified as follows. […] The protein was expressed by induction with 1 mM IPTG as an N-terminal His-tag fusion protein at 18° C. overnight and harvested at 30,000×g. Cells were lysed with lysozyme in lysis buffer (50 mM Tris-HCl, 2 mM Tris[2-carboxyethyl]phosphine (TCEP), 10 μM ZnCl2, 200 mM NaCl) and further treated with sonication for 10 min for complete lysis. The protein was purified over a Ni-NTA column (Amersham) and fractions containing pure protein were pooled, concentrated and run over a sizing column (Sephadex S200 26/60 global). The peak containing soluble protein was collected and run on an Ion-exchange column (MonoQ). Gradient elution (200 mM-500 mM NaCl) yielded pure protein. This protein was concentrated and dialyzed against dialysis buffer (20 mM Tris-HCl, 2 mM TCEP) overnight. The protein was aliquoted and frozen at −80° C. until further use.
# Sirtuin modulating compounds that activated SIRT1 were identified using the assay described above and are shown below in Tables 1 and 2. The EC1.5 values for the activating compounds are represented by A (EC1.5<1.0 μM), B (EC1.5 1-25 μM), C (EC1.5>25 μM). The percent maximum fold activation is represented by A (Fold activation>200%) or B (Fold Activation<200%).
Structure (SMILES),% Fold Act. (percent maximum fold activation),EC1.5 μM
Cn1c(-c2cccc(C(F)(F)F)c2)nc2c(NS(=O)(=O)c3ccccn3)cccc2c1=O [Compound 362],B (Fold Activation<200%),C (EC1.5>25 μM)
Cc1nc(NC(=O)c2cccc3c(=O)n(C)c(-c4cccc(C(F)(F)F)c4)nc23)sc1C [Compound 298],A (Fold activation>200%),A (EC1.5<1.0 μM)
Cn1c(-c2ccccc2S(C)(=O)=O)nc2c(C(=O)Nc3ccccn3)cccc2c1=O [Compound 221],A (Fold activation>200%),B (EC1.5 1-25 μM)
Cn1c(-c2cccc(C(F)(F)F)c2)nc2c(C(=O)Nc3ccncc3)cccc2c1=O [Compound 266],A (Fold activation>200%),B (EC1.5 1-25 μM)
O=C(Nc1cccc2c(=O)cc(-c3cccc(C(F)(F)F)c3)[nH]c12)c1cccc(N2CCOCC2)n1 [Compound 425],A (Fold activation>200%),A (EC1.5<1.0 μM)
Cn1c(-c2cccc(C(F)(F)F)c2)nc2c(C(=O)Nc3cnccn3)cccc2c1=O [Compound 219],A (Fold activation>200%),A (EC1.5<1.0 μM)
O=C(Nc1ccccn1)c1cccc2c(=O)n(CCN3CCCC3)c(-c3cccc(C(F)(F)F)c3)nc12 [Compound 272],B (Fold Activation<200%),B (EC1.5 1-25 μM)
Cn1c(-c2cccc(C(F)(F)F)c2)nc2c(C(=O)Nc3ccc(CN4CC[C@H](F)C4)cn3)cccc2c1=O [Compound 346],A (Fold activation>200%),A (EC1.5<1.0 μM)
Cn1c(-c2cccc(C(F)(F)F)c2)nc2c(C(=O)Nc3ccnc(CN4CCCC4)n3)cccc2c1=O [Compound 359],A (Fold activation>200%),B (EC1.5 1-25 μM)
Cn1c(-c2cccc(C(F)(F)F)c2)nc2c(NC(=O)c3cncc(N4CCOCC4)n3)cccc2c1=O [Compound 336],A (Fold activation>200%),A (EC1.5<1.0 μM)
O=C(Nc1ccccn1)c1cccc2c(=O)[nH]c(-c3ccccc3OC(F)(F)F)nc12 [Compound 320],A (Fold activation>200%),A (EC1.5<1.0 μM)
Cn1c(-c2cccc(C(F)(F)F)c2)nc2c(NC(=O)c3cccc(CN4CCCC4)c3)cccc2c1=O [Compound 364],A (Fold activation>200%),B (EC1.5 1-25 μM)
CCc1nnc(NC(=O)c2cccc3c(=O)n(C)c(-c4cccc(C(F)(F)F)c4)nc23)s1 [Compound 294],A (Fold activation>200%),A (EC1.5<1.0 μM)
Cn1c(-c2cccc(C(F)(F)F)c2)nc2c(C(=O)Nc3cccc(N4CCOCC4)n3)cccc2c1=O [Compound 293],A (Fold activation>200%),A (EC1.5<1.0 μM)
COc1cc(OC)nc(C(=O)Nc2cccc3c(=O)cc(-c4cccc(C(F)(F)F)c4)[nH]c23)n1 [Compound 423],A (Fold activation>200%),A (EC1.5<1.0 μM)
Cn1c(-c2cccc(C(F)F)c2)nc2c(C(=O)Nc3ccccn3)cccc2c1=O [Compound 323],B (Fold Activation<200%),C (EC1.5>25 μM)

Structure (SMILES),% Fold Act. (percent maximum fold activation),EC1.5 μM
O=C(Nc1nccs1)c1cccc2c(=O)cc(-c3ccccc3Cl)[nH]c12 [Compound 426],A (Fold activation>200%),A (EC1.5<1.0 μM)
Cn1c(-c2cccc(C(F)(F)F)c2)nc2c(NC(=O)c3cccnc3OCC(O)CO)cccc2c1=O (centres unmarked) [Compound 334],A (Fold activation>200%),B (EC1.5 1-25 μM)
O=C(Nc1ccccn1)c1cccc2c(=O)[nH]c(-c3cccc(C(F)(F)F)c3)nc12 [Compound 218],A (Fold activation>200%),A (EC1.5<1.0 μM)
Cn1c(-c2cccc(C(F)(F)F)c2)nc2c(C(=O)Nc3cccc(CN4CCOCC4)n3)cccc2c1=O [Compound 344],A (Fold activation>200%),A (EC1.5<1.0 μM)
O=C(Nc1ccccn1)c1cccc2c(=O)[nH]c(-c3cccc(C(F)F)c3)nc12 [Compound 319],B (Fold Activation<200%),C (EC1.5>25 μM)
O=C(Nc1nccs1)c1cccc2c(=O)cc(-c3ccccc3C(F)F)[nH]c12 [Compound 435],A (Fold activation>200%),B (EC1.5 1-25 μM)
Cn1c(-c2cccc(C(F)(F)F)c2)nc2c(NS(=O)(=O)c3cccnc3)cccc2c1=O [Compound 361],B (Fold Activation<200%),C (EC1.5>25 μM)
O=C(Nc1cnccn1)c1cccc2c(=O)cc(-c3cccc(C(F)(F)F)c3)[nH]c12 [Compound 403],A (Fold activation>200%),A (EC1.5<1.0 μM)
Cn1c(-c2cccc(C(F)(F)F)c2)nc2c(NC(=O)c3cscn3)cccc2c1=O [Compound 201],B (Fold Activation<200%),A (EC1.5<1.0 μM)
O=C(Nc1cccc2c(=O)[nH]c(-c3cccc(C(F)F)c3)nc12)c1cnccn1 [Compound 311],B (Fold Activation<200%),C (EC1.5>25 μM)
Cn1c(-c2ccc(C(F)(F)F)cc2)nc2c(NC(=O)c3cnccn3)cccc2c1=O [Compound 251],B (Fold Activation<200%),B (EC1.5 1-25 μM)
O=C(Nc1cccnc1)c1cccc2c(=O)cc(-c3ccccc3OC(F)F)[nH]c12 [Compound 440],A (Fold activation>200%),B (EC1.5 1-25 μM)
"Cn1c(-c2cccc(C(F)(F)F)c2)nc2c(NC(=O)c3ccccn3)cccc2c1=O [Compound 239, N-(3-methyl-4-oxo-2-(3-(trifluoromethyl)phenyl)-3,4-dihydroquinazolin-8-yl)picolinamide]",A (Fold activation>200%),A (EC1.5<1.0 μM)
O=C(Nc1cccc2c(=O)cc(-c3cccc(C(F)(F)F)c3)[nH]c12)c1cscn1 [Compound 405],A (Fold activation>200%),A (EC1.5<1.0 μM)
Cn1c(-c2ccccn2)nc2c(NC(=O)c3cnccn3)cccc2c1=O [Compound 277],B (Fold Activation<200%),C (EC1.5>25 μM)
